Laboratory results: patent US20260234188A1, “CHEMOKINE-BINDING PEPTIDES” (Oxford University Innovation Limited, priority 2022, published 2026)
“Also recorded” adds a separate entry of the source.

tested on: panel of up to 42 human chemokines; assay: Phage-display next generation sequencing screen of overlapping hexadecapeptide libraries, chemokines displayed on streptavidin beads; format: binding; details: log2E greater than 5, chemokines named by first part of UniProt Entry Name;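 further: chemokine listed when log2 fold enrichment exceeds 5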
Method in brief: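 Phage-display libraries of 55662 overlapping hexadecapeptides from tick and viral chemokine-binding proteins, human chemokines and chemokine receptors screened against up to 42 human chemokines, with hits found by next-generation sequencing. Peptides mapped to parent-protein position with log2 fold enrichment; regions of interest where cumulative residue log2 E exceeds the 95% upper CI of the protein median.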

Substance	Chemokines Bound
CR23002 (TIWLVGFLLALPEILF)	CCL17, CCL18, and CCL19, CCL20, and CCL25, CCL28, and X3CL1, SDF1, and CXL13, CXL14, and IL8
CR23111 (TLFASDFVLMWAVFFM)	CCL15, CCL17,; also recorded: CCL20, CCL25,; also recorded: CXL14
CR23112 (TLFASDFVLMWCVFFM)	CCL17, CCL19,; also recorded: CCL20, CCL22,; also recorded: CCL8, X3CL1
CR23240 (TLPFWGISVAWHWVFG)	CCL17, CCL18,; also recorded: CCL20, X3CL1,; also recorded: CXL11
CR23379 (TNFDFMILNLSFADLF)	CCL17, CCL18,; also recorded: X3CL1
CR23443 (TNWKLLAEIYEYLFFF)	CCL17, CCL18,; also recorded: X3CL1, CXL10,; also recorded: CXL13
CR23572 (TRFGVWLMSIVGTFLN)	CCL17, CCL18,; also recorded: CCL2, CCL20,; also recorded: CCL22, CCL25,; also recorded: X3CL1, IL8
CR23587 (TRLGVWLMAIVGTFLN)	CCL18, CCL20,; also recorded: CCL22
CR23773 (TSVITWLVAVFASVPG)	CCL1, CCL18, and CCL2, CCL20, and CCL8
CR23880 (TTVILILAFFASWLPY)	CCL1, CCL18,; also recorded: CCL20, CCL25,; also recorded: CCL28, SDF1,; also recorded: CXL14
CR23915 (TVFLSIFYSVIFAIGL)	CCL17, CCL18,; also recorded: CCL19, CCL2,; also recorded: CCL20, CCL22,; also recorded: CCL25, CCL28,; also recorded: CCL8, X3CL1,; also recorded: CXL10, CXL11,; also recorded: SDF1, CXL13,; also recorded: CXL14, IL8
CR23943 (TVITFALYVGQFLAYV)	CCL2, CCL20,; also recorded: CCL22, X3CL1,; also recorded: CXL10, CXL11,; also recorded: SDF1, CXL13
CR23945 (TVITFSLYVGQFLAYV)	CCL1, CCL15,; also recorded: CCL20, CCL22,; also recorded: CCL28, CXL10,; also recorded: CXL11, SDF1,; also recorded: CXL13
CR23947 (TVKLIFAIVVAYFLSW)	CCL17, CCL20,; also recorded: CCL22, CCL28,; also recorded: SDF1, CXL14
CR23950 (TVLATFKILICIVWGV)	CCL18, CCL19,; also recorded: CCL20, CCL25,; also recorded: SDF1, IL8
CR23958 (TVLLSWKVLLTMVWGA)	CCL1, CCL18,; also recorded: CCL20, CCL25,; also recorded: CCL28, CXL10,; also recorded: CXL11, SDF1
CR24063 (TWNLVLSQFFSILATM)	CCL1, CCL22,; also recorded: CXL11, CXL14
CR24107 (TYIILLLTWFAGLIFS)	CCL22, CCL25,; also recorded: CXL11
CR24347 (VAYSLIFLLGVIGNVL)	CCL18, CCL19,; also recorded: CCL20, CXL11,; also recorded: CXL14
CR24367 (VCILVWLLAFCVSLPD)	CCL11, CCL17,; also recorded: CCL18, CCL19,; also recorded: CCL20, CCL22,; also recorded: CCL25, CCL28,; also recorded: CXL10, CXL11,; also recorded: SDF1, CXL13,; also recorded: CXL14, IL8

Substance	Chemokines Bound
CR24556 (VFGTVFLSIFYSVIFA)	CCL1, CCL17,; also recorded: CCL18, CCL19,; also recorded: CCL2, CCL20,; also recorded: CCL22, CCL25,; also recorded: CCL28, X3CL1,; also recorded: CXL10, CXL11,; also recorded: SDF1, CXL13,; also recorded: CXL14, IL8
CR24593 (VFLLSLLGNSLVMLVI)	CCL22, CCL25, and CXL10, CXL11, and SDF1, CXL13, and IL8
CR24594 (VFLLSLVGNSLVLWVL)	CCL22, X3CL1, and CXL11, CXL13, and IL8
CR24612 (VFLSIFYSVIFAIGLV)	CCL17, CCL18,; also recorded: CCL22, CCL25,; also recorded: CCL28, X3CL1,; also recorded: CXL10, CXL11,; also recorded: SDF1, CXL13,; also recorded: CXL14
CR24702 (VFYSLLFVFSLLGNSL)	CCL17, CCL18, and CCL19, CCL20, and CCL22, CCL25, and CCL5, X3CL1, and CXL11, CXL14, and IL8
CR24707 (VGALGNSLVILVYWYC)	CCL17, CCL18,; also recorded: CCL19, CCL20
CR24900 (VIGFLVPLLAMSFCYL)	CCL15, CCL17,; also recorded: CCL18
CR24960 (VIMMTWFYAFFYSTVQ)	CCL1, CCL17,; also recorded: CCL18, CCL2,; also recorded: CCL22, CCL25,; also recorded: CCL28, CCL5,; also recorded: X3CL1, CXL11,; also recorded: CXL13, IL8
CR24989 (VITFCLYVGQFLAYVR)	CCL17, CCL18,; also recorded: CCL19, CCL20,; also recorded: CCL25, X3CL1,; also recorded: CXL10, SDF1,; also recorded: CXL14
CR25001 (VITWLVAVFASVPGII)	CCL1, CCL19,; also recorded: CCL2, CXL11,; also recorded: CXL14
CR25151 (VLGDFLCKLLNMIFSI)	CCL18, CCL2, and CCL28, X3CL1, and CXL10, CXL14, and IL8
CR25165 (VLGLLLNSLALWVFAA)	CCL19, CCL2,; also recorded: CCL20, CCL28
CR25167 (VLGLLLNSLALWVFSS)	CCL11, CCL17,; also recorded: CCL18, CXL11,; also recorded: CXL14
CR25244 (VLLSWKVLLTMVWGAA)	CCL11, CCL17,; also recorded: CCL18, CCL19,; also recorded: CCL2, CCL20,; also recorded: CCL22, CCL25,; also recorded: CCL28, X3CL1,; also recorded: CXL10, CXL11,; also recorded: SDF1, CXL13,; also recorded: CXL14, IL8
CR25357 (VLTLKVILGFFLPFVV)	CCL1, CCL17,; also recorded: CCL18, CCL19,; also recorded: CCL28, CXL10,; also recorded: CXL11, SDF1,; also recorded: CXL13, CXL14
CR25375 (VLVIGSLVARWLLGIQ)	CCL18, CCL19,; also recorded: CCL20
CR25407 (VLYFIADEVYTVLLSW)	CCL15, CCL17, and CCL18, CCL19, and CCL20, CCL25, and X3CL1, CXL10, and CXL11, CXL13, and IL8
CR25802 (VSILVWLLAFSVSLPD)	CCL15, CCL18, and CCL19, CCL20, and CCL28, CXL10, and IL8
CR26001 (VTLTSLAVWGLSLLFA)	CCL11, CCL2,; also recorded: CCL28, SDF1
CR26036 (VTSLLIWVISLLVSLP)	CCL28, X3CL1, and SDF1, CXL14, and IL8

same assay, conditions: log2E greater than 5, chemokines named by first part of UniProt entry name, C5a (control) binders excluded

Substance	Chemokines Bound
CR20433 VP8386 (SFYVAMFASLSFITEI)	CCL1, X3CL1, and CXL10, CXL11, and IL8
CR20481 (SGIFFIILLTIDRYLA)	CCL1, CCL19,; also recorded: CCL20, CCL22,; also recorded: CCL25, CCL28,; also recorded: X3CL1, CXL10,; also recorded: CXL11, SDF1
CR20486: chemokine binding peptide of Table 5A used in FIG. 5 combinations (SGIITSVLAWVTAILA)	CCL11, CCL2,; also recorded: CCL8, IL8
CR20557 (SGYDMWLMLVYSVMIP)	CCL1, CCL15,; also recorded: CCL25
CR20660 (SIILMFLSDFSFIFSS)	CCL25, CXL13, and IL8
CR20762 (SIYLLNLAISDLLFLF)	CCL22, CCL28,; also recorded: CXL10, CXL11,; also recorded: SDF1, CXL13,; also recorded: CXL14, IL8
CR20939 (SLCLSISLLAEVLMFL)	CCL1, CCL18,; also recorded: CCL19, X3CL1
CR20965 (SLFAALVTLITSLFGS)	CCL11, CCL17,; also recorded: CCL18, CCL19,; also recorded: CCL2, CCL20,; also recorded: CCL28, X3CL1,; also recorded: CXL10, CXL11,; also recorded: CXL14, IL8
CR20981 (SLFSALVTLITSLFGS)	CCL1, CCL11,; also recorded: CCL17, CCL18,; also recorded: CCL2, CCL25,; also recorded: CCL8, X3CL1,; also recorded: CXL10, IL8
CR21134 (SLSISLLAEVLMFLFP)	CCL17, CCL18, and CCL2, CCL25, and CCL28, X3CL1, and CXL10, CXL11, and SDF1, CXL14, and IL8
CR21168 (SLVFIFGFVGNMLVIL)	CCL1, CCL22,; also recorded: CCL28, CXL10,; also recorded: CXL13, CXL14
CR21236 (SMILESLFAALVTLIT)	CCL22, CXL10,; also recorded: CXL11, SDF1,; also recorded: CXL13, IL8
CR21238: chemokine binding peptide of Table 5A used in FIG. 5 combinations (SMILESLFSALVTLIT)	CCL2, CXL11, and IL8
CR21284 (SMVIWVLAFFLSSPSL)	CCL1, CCL18,; also recorded: CCL20
CR21349: chemokine binding peptide of Table 5A used in FIG. 5 combinations (SNVTFTGLISAFSWFM)	CCL11, CCL2,; also recorded: CCL3, CCL4,; also recorded: CCL5, CCL8
CR22218 (SVSLVNLLTIIGCLWV)	CCL19, X3CL1,; also recorded: CXL13
CR22271 (SWIISFSVWMAAILLS)	CCL1, CCL17,; also recorded: CXL10
CR22272 (SWKVLLTLVWGAAPVI)	CCL17, CCL18,; also recorded: CCL20, CCL22,; also recorded: CCL25, CCL28,; also recorded: X3CL1, CXL10,; also recorded: CXL11, SDF1,; also recorded: CXL14, IL8
CR22363 (SYRSTYIILLLTWFAG)	CCL18, X3CL1,; also recorded: CXL10
CR22658 (TENFEYDDLAEACYIG)	CCL17, CCL18,; also recorded: X3CL1
CR22736 (TFGVVTSVITWLVAVF)	CCL1, CCL11, and CCL17, CCL18, and CCL2, CCL25, and CCL28, CCL8, and X3CL1, CXL10, and CXL11, SDF1, and CXL13, CXL14, and IL8
CR22747 (TFKILICIVWGVMPVV)	CCL1, CCL17,; also recorded: CCL18, CCL20,; also recorded: CCL22, CCL28,; also recorded: X3CL1, CXL10,; also recorded: SDF1, CXL13,; also recorded: CXL14
CR22748 (TFKILISIVWGVMPVV)	CCL17, CCL18,; also recorded: CCL19, CCL20,; also recorded: CCL22, CCL28,; also recorded: X3CL1, CXL10,; also recorded: CXL11, SDF1,; also recorded: CXL14, IL8
CR22786 (TFTGLIAAFSWFMLSL)	CCL11, CCL17,; also recorded: CCL18, CCL2,; also recorded: CCL20, CCL22,; also recorded: CCL28, X3CL1,; also recorded: SDF1, IL8
